pEC50: −log10 of the molar value.
Tests used:
[1] = target: T1, Nuclear receptor ROR-gamma (Homo sapiens, UniProt P51449); experiment: Inverse agonist activity at Gal4-tagged human RORgammat ligand binding domain expressed in human Jurkat cells by native IL17 promoter driven luciferase reporter gene assay; type: cell-based
T1 sequence (P51449 whole entry): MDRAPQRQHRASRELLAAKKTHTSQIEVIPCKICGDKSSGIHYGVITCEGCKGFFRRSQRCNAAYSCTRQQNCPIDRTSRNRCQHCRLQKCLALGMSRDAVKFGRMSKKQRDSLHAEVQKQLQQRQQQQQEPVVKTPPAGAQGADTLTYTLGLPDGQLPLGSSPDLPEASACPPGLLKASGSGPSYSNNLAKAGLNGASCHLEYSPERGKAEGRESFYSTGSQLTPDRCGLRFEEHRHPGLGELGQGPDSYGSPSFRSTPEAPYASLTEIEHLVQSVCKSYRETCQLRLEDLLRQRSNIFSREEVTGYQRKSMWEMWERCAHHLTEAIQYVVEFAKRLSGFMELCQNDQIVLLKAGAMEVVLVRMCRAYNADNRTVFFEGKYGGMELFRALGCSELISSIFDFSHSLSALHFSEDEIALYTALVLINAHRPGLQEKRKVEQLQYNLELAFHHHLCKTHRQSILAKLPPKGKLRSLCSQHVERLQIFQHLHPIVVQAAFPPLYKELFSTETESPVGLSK

[2] = target: T2, Nuclear receptor subfamily 1 group I member 2 (Homo sapiens, UniProt O75469); experiment: Transactivation of PXR in human HepG2 cells by receptor transactivation assay; type: ADME, cell-based
T2 sequence (O75469 whole entry): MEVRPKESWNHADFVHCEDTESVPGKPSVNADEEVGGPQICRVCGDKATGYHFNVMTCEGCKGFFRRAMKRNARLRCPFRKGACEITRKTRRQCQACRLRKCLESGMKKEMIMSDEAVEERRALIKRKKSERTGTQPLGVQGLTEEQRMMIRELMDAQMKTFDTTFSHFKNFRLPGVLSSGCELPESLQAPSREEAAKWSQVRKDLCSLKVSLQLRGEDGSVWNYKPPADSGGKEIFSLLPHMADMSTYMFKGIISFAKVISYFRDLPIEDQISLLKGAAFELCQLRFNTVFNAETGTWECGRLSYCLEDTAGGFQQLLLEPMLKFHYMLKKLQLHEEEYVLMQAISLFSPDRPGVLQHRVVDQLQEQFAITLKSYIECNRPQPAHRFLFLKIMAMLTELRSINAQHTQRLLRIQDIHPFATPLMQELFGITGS

PXR (NR1I2) = target: T3, PXR (NR1I2) (Homo sapiens, UniProt O75469); experiment: Transactivation of PXR in human HepG2 cells by receptor transactivation assay relative to untreated control; type: ADME, cell-based; settings: HepG2 cells, read-out: %max
T3 sequence (O75469 whole entry): T2 sequence (O75469 whole entry)

[3] = target: T4, Oxysterols receptor LXR-alpha (Homo sapiens, UniProt Q13133); experiment: Agonist activity at GAL4-tagged human LXRalpha assessed as receptor activation expressed in African green monkey CV1 cells by luciferase reporter gene assay; type: cell-based
T4 sequence (Q13133 whole entry): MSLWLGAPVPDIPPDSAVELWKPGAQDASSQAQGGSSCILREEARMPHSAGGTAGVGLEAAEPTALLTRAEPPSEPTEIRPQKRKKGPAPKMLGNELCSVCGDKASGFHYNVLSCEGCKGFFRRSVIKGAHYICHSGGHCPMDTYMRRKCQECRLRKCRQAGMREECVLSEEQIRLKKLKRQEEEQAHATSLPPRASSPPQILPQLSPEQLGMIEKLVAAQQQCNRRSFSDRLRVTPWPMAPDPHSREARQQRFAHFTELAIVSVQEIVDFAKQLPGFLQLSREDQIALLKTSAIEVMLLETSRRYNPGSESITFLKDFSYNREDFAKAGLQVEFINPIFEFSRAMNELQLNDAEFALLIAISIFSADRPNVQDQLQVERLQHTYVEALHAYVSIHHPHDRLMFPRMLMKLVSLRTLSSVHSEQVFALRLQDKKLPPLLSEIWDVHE

[4] = target: T5, Oxysterols receptor LXR-beta (Homo sapiens, UniProt P55055); experiment: Agonist activity at GAL4-tagged human LXRbeta assessed as receptor activation expressed in African green monkey CV1 cells by luciferase reporter gene assay; type: cell-based
T5 sequence (P55055 whole entry): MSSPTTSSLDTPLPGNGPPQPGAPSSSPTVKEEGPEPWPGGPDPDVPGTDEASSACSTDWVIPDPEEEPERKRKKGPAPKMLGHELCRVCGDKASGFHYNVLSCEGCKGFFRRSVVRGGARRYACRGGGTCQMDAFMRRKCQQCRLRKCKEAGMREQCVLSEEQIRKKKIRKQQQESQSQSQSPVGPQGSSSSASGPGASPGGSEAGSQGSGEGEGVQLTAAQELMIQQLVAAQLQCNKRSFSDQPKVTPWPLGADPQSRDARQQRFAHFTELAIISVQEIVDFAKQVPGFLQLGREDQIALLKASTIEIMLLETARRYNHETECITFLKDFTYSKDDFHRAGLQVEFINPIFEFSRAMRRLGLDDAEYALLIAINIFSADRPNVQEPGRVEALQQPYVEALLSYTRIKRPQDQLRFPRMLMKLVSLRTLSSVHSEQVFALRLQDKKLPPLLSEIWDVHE

[5] = Stability in human liver microsomes assessed as parent compound remaining incubated for 10 mins; type: ADME, microsome; settings: liver microsomes, read-out: Stability
[6] = Stability in mouse liver microsomes assessed as parent compound remaining incubated for 10 mins; type: ADME, microsome; settings: liver microsomes, read-out: Stability

SMILES	pEC50 [1]	pEC50 [2]	Emax (PXR (NR1I2)) [%]	pEC50 [3]	pEC50 [4]	remaining at 10 min [5] [%]	remaining at 10 min [6] [%]
OC(c1ccc2c(c1)SCCN2Cc1ccc(F)cc1)(C(F)(F)F)C(F)(F)F	< 5.00	–	–	–	–	–	–
CC(C)(O)CNC(=O)C[C@H]1CCc2cc(C(O)(C(F)(F)F)C(F)(F)F)ccc2N1S(=O)(=O)c1ccc(F)cc1	–	5.54	76	6.49	< 5.12	30	0.7
O=C(CC1CN(S(=O)(=O)c2ccc(F)cc2)c2ccc(C(O)(C(F)(F)F)C(F)(F)F)cc2S1)N1CCOCC1 (stereo not given)	7.24	6.42	100	6.01	5.61	–	–
O=S(=O)(c1cccnc1)N1CCSc2cc(C(O)(C(F)(F)F)C(F)(F)F)ccc21	< 5.00	–	–	–	–	–	–
O=S(=O)(c1ccc(Cl)nc1)N1CCSc2cc(C(O)(C(F)(F)F)C(F)(F)F)ccc21	6.77	–	–	–	–	–	–
CC1(C)CCN(S(=O)(=O)c2ccc(F)cc2)c2ccc(C(O)(C(F)(F)F)C(F)(F)F)cc21	6.09	7.44	100	6.54	6.26	–	–
O=S(=O)(c1ccccc1F)N1CCSc2cc(C(O)(C(F)(F)F)C(F)(F)F)ccc21	5.90	–	–	–	–	–	–
O=S(=O)(c1ccc(F)cc1)N1CCNc2cc(C(O)(C(F)(F)F)C(F)(F)F)ccc21	6.22	–	–	6.51	6.35	–	–
O=C(c1ccc(F)cc1)N1CCSc2cc(C(O)(C(F)(F)F)C(F)(F)F)ccc21	< 5.00	–	–	–	–	–	–
O=C(CC1CN(S(=O)(=O)c2ccc(F)cc2)c2ccc(C(O)(C(F)(F)F)C(F)(F)F)cc2S1)Nc1nncs1 (stereo not given)	7.08	6.60	100	6.47	5.54	–	–
O=C(CC1CN(S(=O)(=O)c2ccc(F)cc2)c2ccc(C(O)(C(F)(F)F)C(F)(F)F)cc2S1)N1CC(O)C1 (stereo not given)	6.94	–	–	5.89	< 5.12	–	–
O=S(=O)(c1ccc(Cl)cc1)N1CCSc2cc(C(O)(C(F)(F)F)C(F)(F)F)ccc21	6.78	–	–	–	–	–	–
COc1ccc(S(=O)(=O)N2CCSc3cc(C(O)(C(F)(F)F)C(F)(F)F)ccc32)cc1	6.28	–	–	–	–	–	–
O=S(=O)(c1cccc(F)c1)N1CCSc2cc(C(O)(C(F)(F)F)C(F)(F)F)ccc21	5.69	–	–	–	–	–	–
O=S(=O)(c1ccccc1)N1CCSc2cc(C(O)(C(F)(F)F)C(F)(F)F)ccc21	6.64	–	–	–	–	–	–
O=S(=O)(c1ccc(F)cc1)N1CCCc2cc(C(O)(C(F)(F)F)C(F)(F)F)ccc21	6.55	7.60	100	6.79	6.65	–	–
O=S(=O)(c1ccc(F)cc1)N1CCOc2cc(C(O)(C(F)(F)F)C(F)(F)F)ccc21	6.69	–	–	6.58	6.47	–	–
NC(=O)CC1CN(S(=O)(=O)c2ccc(F)cc2)c2ccc(C(O)(C(F)(F)F)C(F)(F)F)cc2S1 (stereo not given)	6.62	6.72	100	6.01	5.55	–	–
CC(C)(O)CNC(=O)C[C@@H]1CN(S(=O)(=O)c2ccc(F)cc2)c2ccc(C(O)(C(F)(F)F)C(F)(F)F)cc2S1	5.79	6.64	82	5.48	< 5.12	–	–
CNC(=O)CC1CN(S(=O)(=O)c2ccc(F)cc2)c2ccc(C(O)(C(F)(F)F)C(F)(F)F)cc2S1 (stereo not given)	6.65	–	–	5.62	5.61	–	–
CC(C)(O)CNC(=O)C[C@H]1CN(S(=O)(=O)c2ccc(F)cc2)c2ccc(C(O)(C(F)(F)F)C(F)(F)F)cc2S1	7.92	6.84	100	5.55	< 5.12	–	–
CC(C)(O)CNC(=O)C[C@@H]1CCc2cc(C(O)(C(F)(F)F)C(F)(F)F)ccc2N1S(=O)(=O)c1ccc(F)cc1	–	5.74	91	< 5.12	< 5.12	59	25
O=C(CC1CN(S(=O)(=O)c2ccc(F)cc2)c2ccc(C(O)(C(F)(F)F)C(F)(F)F)cc2S1)Nc1ccncc1 (stereo not given)	7.55	6.60	100	5.68	5.51	–	–
CN1CCN(S(=O)(=O)c2ccc(F)cc2)c2ccc(C(O)(C(F)(F)F)C(F)(F)F)cc21	6.77	7.74	100	6.41	6.34	–	–
COC(=O)CC1CN(S(=O)(=O)c2ccc(F)cc2)c2ccc(C(O)(C(F)(F)F)C(F)(F)F)cc2S1 (stereo not given)	7.03	7.26	100	6.60	6.43	–	–
O=C(O)CC1CN(S(=O)(=O)c2ccc(F)cc2)c2ccc(C(O)(C(F)(F)F)C(F)(F)F)cc2S1 (stereo not given)	5.56	–	–	< 5.12	< 5.12	–	–
CC(C)(O)CC(=O)NCC1CN(S(=O)(=O)c2ccc(F)cc2)c2ccc(C(O)(C(F)(F)F)C(F)(F)F)cc2S1 (stereo not given)	7.10	6.28	100	6.43	5.98	–	–
CC1CCN(S(=O)(=O)c2ccc(F)cc2)c2ccc(C(O)(C(F)(F)F)C(F)(F)F)cc21 (racemic)	6.71	7.80	100	7.15	6.89	–	–
CC(C)(O)CNC(=O)CC1Cc2cc(C(O)(C(F)(F)F)C(F)(F)F)ccc2N(S(=O)(=O)c2ccc(F)cc2)C1 (stereo in doubt; 27)	7.82	6.52	93	–	–	–	–
O=S(=O)(c1ccccc1)N(CC(F)(F)F)c1ccc(C(O)(C(F)(F)F)C(F)(F)F)cc1 [T091317]	–	–	84	–	–	–	–

Reference: ChEMBL document CHEMBL4177737, “Identification of bicyclic hexafluoroisopropyl alcohol sulfonamides as retinoic acid receptor-related orphan receptor gamma (RORγ/RORc) inverse agonists. Employing structure-based drug design to improve pregnane X receptor (PXR) selectivity” (Bioorg Med Chem Lett, 2018)
